For assay [1], the system named is canine PDH. Conditions: of 10 dogs studied; cited from earlier work.
The subject of assay [2] is dogs with hyperadrenocorticism (HAC). Kind of assay: Prospective study of trilostane in dogs with spontaneous hyperadrenocorticism (HAC): clinical signs and survival. Type of assay: in vivo, dog. Conditions: given to 4 dogs for three to four days before enrolment. On the procedure: Animals were entered into a prospective study and all animals required clinical and laboratory signs of hyperadrenocorticism as well as a final diagnosis of this disease. Data collected from each case included a clinical-historicy and physical examination, full blood count (CBC), serum biochemical profile, urinalysis and abdominal ultrasound. An ACTH-stimulation test was performed in all dogs. […] Dogs that had been treated for HAC other medication needed to be off these drugs for at least 10 days. Dogs with renal or hepatic insufficiency and dogs that received steroids were not included in the study.
Dogs with pituitary dependant hyperadrenocorticism or adrenal tumour which was unresectable or the owners were unwilling to have surgery performed, respectively, were treated with trilostane. The initial dose for dogs[…] was 30 mg once daily, dogs between 5 and 15 kg received 60 mg once daily and dogs>15 kg received 120 mg once daily. Dosages were adjusted based on clinical signs, blood biochemical parameters and an ACTH stimulation test.
Follow-up re-examinations took place after 10 days, 4 weeks, 3 mouths, 6 months and then every 6 months or within 4 weeks of adjusting the dosage. At these points, owners were carefully questioned about their perception of the dogs general well being, dissolution of clinical signs and potential side effects and a physical examination was performed. A full biochemical profile and an ACTH stimulation test were carried out. Further tests such as urinanalysis, urine culture, thoracic radiographs, etc. were done if deemed necessary. If the clinical sips of hyperadrenocorticism (polyuria/polydipsia, polyphagia, exercise intolerance, etc.) were still present and if the post-ACTH cortisol concentration remained above 220 nmol/l, trilostane was given twice daily at the same dosage.

In the case of `C#CCN(C)[C@H](C)Cc1ccccc1` [L-Deprenyl], the “Dogs with improvement of clinical signs” value in assay [1] was 2 dogs.
On to `Clc1ccc(C(c2ccccc2Cl)C(Cl)Cl)cc1` (centres unmarked) [Lysodren], for which the Clinical effect entry in assay [2] is “did not show any clinical effect”.

The values are drawn from patent US9283235B2, “Intermittent lowering of cortisol as treatment of clinical conditions associated with abnormal concentrations of cortisol in animals” (Stegram Pharmaceuticals Limited, priority 2001, dated 2016).
